The nature of this data set: pKa (acid dissociation constant) determined by neutralization titration. The note with it: acid dissociation constant at 25°C in water. Type of data set: physicochemical.

`CO` [Base B-2, KOMe] returned a pKa of 16.

Broadly, the pKa is the negative logarithm of the acid dissociation constant.

Source of the values: patent EP4707263A1, “FLUORINATING AGENT AND FLUORINATION METHOD” (Daikin Industries, Ltd., priority 2024, dated 2025).
